Structures can show the parent of a compound that is named as a salt. Where two headings read alike, the source gives them in different places. Non-standard residues stand in square brackets, D forms with d. Residues, ends and D or L forms follow the SMILES beside them. Dopa = N[C@@H](Cc1ccc(O)c(O)c1)C(=O)O
Experiments:
[1] = In-vitro metabolism of LDAA compounds using liver microsomes; format: in vitro ADME, human; conditions: for half-life at 0.1 μM: pH 7.4, 1.0E−07M, 0.1 mg/mL microsomal protein
How it was run: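 Compounds at 0.1 μM were incubated at 37° C with pooled mixed-gender human liver microsomes (0.1 mg/mL protein) in phosphate buffer pH 7.4 plus an NADPH-generating system for 0–60 min. Remaining parent was quantified by HPLC-MS/MS versus time zero; t1/2 came from first-order fits, and Clint = 0.693/(t1/2×protein concentration).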

[2] = In-vitro absorption, Caco-2 A-B permeability; format: in vitro ADME, human; conditions: human, Caco-2, pH 7.4, Caco-2 A-B, without verapamil; for Papp A→B at 60 min, 10 μM: 1.0E−05M
Experimental: (§1) Conditions may be adjusted when necessary.
(§2) D denotes donor and R is receiver. […] V is the volume of the donor or receiver.
(§3) The test was performed with and without verapamil, which is a permeation inhibitor, and the results are presented in Tables 22 (without verapamil) and 34 (with verapamil).

P-gp = experiment: In-vitro absorption, Caco-2 A-B permeability; format: in vitro ADME, human; conditions: human, Caco-2, pH 7.4, with verapamil 100 μM on both the A and B sides, Caco-2 A-B, in the presence of verapamil
Experimental: as §1, §2, §3

[3] = Comparative formulation tests, physical stability (Tables 32a-c, 33a-c); format: physicochemical; conditions: LDAA TFA salt/CD formulation; for Physical stability (visual), Day 1: Day 1, room temperature; for Physical stability (visual), Day 2: Day 2, room temperature; for Physical stability (visual), Day 5: Day 5, room temperature after two days at 2-8° C.; for Physical stability (visual), Day 6: Day 6, room temperature after two days at 2-8° C.; for Physical stability (visual), Day 40: Day 40, returned to 2-8° C.
How it was run: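 The solutions contained CD, ascorbic acid and NAC at three levels, with pH adjusted by arginine. Each was cycled room temperature 2 days → 2-8 °C 2 days → room temperature 2 days, then refrigerated to day 40, and was visually checked for precipitate (clear = stable).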

[4] = incubation time 0 minutes, 1.0E−07M
[5] = incubation time 15 minutes, 1.0E−07M
[6] = incubation time 30 minutes, 1.0E−07M
[7] = incubation time 45 minutes, 1.0E−07M
[8] = incubation time 60 minutes, 1.0E−07M
[9] = read-out: Percent Recovery Mean
[10] = NB 144-15, ~0.1% Asc + ~0.1% NAC
[11] = NB 144-18, ~0.4% Asc + ~0.4% NAC
[12] = NB 144-20, ~0.8% Asc + ~0.8% NAC

SMILES: N[C@@H](Cc1ccc(O)c(O)c1)C(=O)N[C@@H](Cc1ccc(O)cc1)C(=O)O [LD-Tyr TFA salt, Levodopa Tyrosine TFA Salt] (H-[Dopa]-Tyr-OH)
- half-life at 0.1 μM ([1]; both sexes, human, pooled human liver microsomes, read-out: Half-Life (minute) 1st): 112 min
- half-life at 0.1 μM ([1]; both sexes, human, pooled human liver microsomes, read-out: Half-Life (minute) 2nd): 315 min
- half-life at 0.1 μM ([1]; both sexes, human, pooled human liver microsomes, read-out: Half-Life (minute) Mean): > 60 min
- microsomal CLint at 0.1 μM ([1]; both sexes, human, pooled human liver microsomes, pH 7.4, calculated from the half-life, 1.0E−07M): < 116 µL/min/mg
- % Compound Remaining 1st [1, 4]: 100%
- % Compound Remaining 2nd [1, 4]: 100%
- % Compound Remaining Mean [1, 4]: 100%
- % Compound Remaining 1st [1, 5]: 90.7%
- % Compound Remaining 2nd [1, 5]: {121.6%
- % Compound Remaining Mean [1, 5]: 91%
- % Compound Remaining 1st [1, 6]: 102.5%
- % Compound Remaining 2nd [1, 6]: 110.1%
- % Compound Remaining Mean [1, 6]: 106%
- % Compound Remaining 1st [1, 7]: 71.4%
- % Compound Remaining 2nd [1, 7]: 104.1%
- % Compound Remaining Mean [1, 7]: 88%
- % Compound Remaining 1st [1, 8]: 70.8%
- % Compound Remaining 2nd [1, 8]: 84.5%
- % Compound Remaining Mean [1, 8]: 78%
- Papp A→B at 60 min, 10 μM ([2]; read-out: Permeability 1st): 0.05 ×10⁻⁶ cm/s
- Papp A→B at 60 min, 10 μM ([2]; read-out: Permeability 2nd): 0.04 ×10⁻⁶ cm/s
- recovery at 60 min, 10 μM ([2]; read-out: Percent Recovery 1st): 45%
- recovery at 60 min, 10 μM ([2]; read-out: Percent Recovery 2nd): 39%
- recovery at 60 min, 10 μM [2, 9]: 42%
- recovery at 60 min, 10 μM (P-gp; read-out: Percent Recovery 1st): 40%
- recovery at 60 min, 10 μM (P-gp; read-out: Percent Recovery 2nd): 39%
- recovery at 60 min, 10 μM (P-gp; [9]): 40%
- Physical stability (visual), Day 1 [3, 10]: Stable
- Physical stability (visual), Day 2 [3, 10]: Stable
- Physical stability (visual), Day 5 [3, 10]: Precipitated
- Physical stability (visual), Day 6 [3, 10]: Precipitated
- Physical stability (visual), Day 40 [3, 10]: Precipitated
- Physical stability (visual), Day 1 [3, 11]: Stable
- Physical stability (visual), Day 2 [3, 11]: Stable
- Physical stability (visual), Day 5 [3, 11]: Stable
- Physical stability (visual), Day 6 [3, 11]: Stable
- Physical stability (visual), Day 40 [3, 11]: Stable
- Physical stability (visual), Day 1 [3, 12]: Stable
- Physical stability (visual), Day 2 [3, 12]: Stable
- Physical stability (visual), Day 5 [3, 12]: Stable
- Physical stability (visual), Day 6 [3, 12]: Stable
- Physical stability (visual), Day 40 [3, 12]: Stable

— US20220362386A1, “LIQUID COMPOSITIONS COMPRISING A LEVODOPA AMINO ACID CONJUGATE AND USES THEREOF” (NeuroDerm, Ltd., priority 2019, published 2022)
